The text below walks through data of patent US11987588B2, “Modulators of the beta-3 adrenergic receptor useful for the treatment or prevention of heart failure and disorders related thereto” (Arena Pharmaceuticals, Inc., priority 2017, dated 2024).

The assay deals with Beta-3 Adrenergic Receptor (Homo sapiens (Human), UniProt P13945). The experiment in a line: Homogeneous Time-Resolved Fluorescence (HTRF) cAMP antagonist assay, IC50 determination. The assay is classed as cell-based. To be noted: CHO-K1 cells stably expressing recombinant receptor, isoproterenol at EC90. In a few lines: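 CHO-K1 cells stably expressing the recombinant receptor were preincubated with compound (10-point, 5-fold dilutions; top final typically 10 or 100 μM) in PBS with 1 mM IBMX, then stimulated with isoproterenol at its EC90 for 1 h at room temperature. cAMP was read by HTRF against an on-plate standard curve.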
Chain of Beta-3 Adrenergic Receptor (P13945 whole entry, species assumed): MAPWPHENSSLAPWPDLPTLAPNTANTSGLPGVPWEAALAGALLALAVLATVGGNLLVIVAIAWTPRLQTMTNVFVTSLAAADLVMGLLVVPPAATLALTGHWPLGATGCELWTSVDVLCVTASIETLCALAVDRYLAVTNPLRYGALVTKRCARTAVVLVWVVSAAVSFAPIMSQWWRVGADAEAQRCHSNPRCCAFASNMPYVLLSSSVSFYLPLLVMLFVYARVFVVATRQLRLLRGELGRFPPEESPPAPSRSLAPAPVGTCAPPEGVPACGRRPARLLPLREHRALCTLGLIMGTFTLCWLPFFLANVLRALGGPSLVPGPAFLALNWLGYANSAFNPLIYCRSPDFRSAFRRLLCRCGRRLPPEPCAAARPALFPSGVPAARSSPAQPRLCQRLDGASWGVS
A general note: TR-FRET usually uses a lanthanide donor and a delayed reading to cut background.
In general, IC50 refers to the midpoint of a concentration-inhibition curve. For the molecule `CNS(=O)(=O)c1cccc(OC[C@@H](O)CNC2COC3(CCN(S(=O)(=O)c4ccc(Cl)s4)CC3)C2)c1` (stereo partly drawn) [Compound 181, 3-((2S)-3-(8-(5-chlorothiophen-2-ylsulfonyl)-1-oxa-8-azaspiro[4.5]decan-3-ylamino)-2-hydroxypropoxy)-N-methylbenzenesulfonamide], the IC50 is 24.3 nM.
With `CNS(=O)(=O)c1cccc(OC[C@@H](O)CNC2COC3(CCN(S(=O)(=O)c4ccc5c(c4)CC(=O)N5)CC3)C2)c1` (stereo partly drawn) [Compound 182, 3-((2S)-2-hydroxy-3-(8-(2-oxoindolin-5-ylsulfonyl)-1-oxa-8-azaspiro[4.5]decan-3-ylamino)propoxy)-N-methylbenzenesulfonamide] the figure was 105 nM; with `CNS(=O)(=O)c1cccc(OC[C@@H](O)CN[C@@H]2COC3(CCN(S(=O)(=O)c4ccc5c(c4)CCCO5)CC3)C2)c1` [Compound 183, 3—((S)-3-((S)-8-(chroman-6-ylsulfonyl)-1-oxa-8-azaspiro[4.5]decan-3-ylamino)-2-hydroxypropoxy)-N-methylbenzenesulfonamide], 16.4 nM.
Under `CNS(=O)(=O)c1cccc(OC[C@@H](O)CN[C@H]2COC3(CCN(S(=O)(=O)c4ccc5c(c4)CCCO5)CC3)C2)c1` [Compound 184, 3-((S)-3-((R)-8-(chroman-6-ylsulfonyl)-1-oxa-8-azaspiro[4.5]decan-3-ylamino)-2-hydroxypropoxy)-N-methylbenzenesulfonamide] stands 11.9 nM.
Under `CNS(=O)(=O)c1cccc(OC[C@@H](O)CNC2COC3(CCN(S(=O)(=O)c4ccc(Cl)c5nonc45)CC3)C2)c1` (stereo partly drawn) [Compound 185, 3-((2S)-3-(8-(7-chlorobenzo[c][1,2,5]oxadiazol-4-ylsulfonyl)-1-oxa-8-azaspiro[4.5]decan-3-ylamino)-2-hydroxypropoxy)-N-methylbenzenesulfonamide] stands 7.25 nM.
Regarding `CNS(=O)(=O)c1cccc(OC[C@@H](O)CNC2COC3(CCN(S(=O)(=O)c4sc(-c5ccccc5)nc4C)CC3)C2)c1` (stereo partly drawn) [Compound 186, 3-((2S)-2-hydroxy-3-(8-(4-methyl-2-phenylthiazol-5-ylsulfonyl)-1-oxa-8-azaspiro[4.5]decan-3-ylamino)propoxy)-N-methylbenzenesulfonamide], the IC50 was found to be 15.7 nM.
Under `CNS(=O)(=O)c1cccc(OC[C@@H](O)CNC2COC3(CCN(S(=O)(=O)c4ccc(-c5ccccc5)s4)CC3)C2)c1` (stereo partly drawn) [Compound 187, 3-((2S)-2-hydroxy-3-(8-(5-phenylthiophen-2-ylsulfonyl)-1-oxa-8-azaspiro[4.5]decan-3-ylamino)propoxy)-N-methylbenzenesulfonamide] stands 7.72 nM; under `CNS(=O)(=O)c1cccc(OC[C@@H](O)CNC2COC3(CCN(S(=O)(=O)c4c(C)noc4C)CC3)C2)c1` (stereo partly drawn) [Compound 188, 3-((2S)-3-(8-(3,5-dimethylisoxazol-4-ylsulfonyl)-1-oxa-8-azaspiro[4.5]decan-3-ylamino)-2-hydroxypropoxy)-N-methylbenzenesulfonamide], 18.1 nM; under `CNS(=O)(=O)c1cccc(OC[C@@H](O)CNC2COC3(CCN(S(=O)(=O)c4ccc5c(c4)N(C)CCO5)CC3)C2)c1` (stereo partly drawn) [Compound 189, 3-((2S)-2-hydroxy-3-(8-(4-methyl-3,4-dihydro-2H-benzo[b][1,4]oxazin-6-ylsulfonyl)-1-oxa-8-azaspiro[4.5]decan-3-ylamino)propoxy)-N-methylbenzenesulfonamide], 8.51 nM.
Take `CNS(=O)(=O)c1cccc(OC[C@@H](O)CNC2COC3(CCN(S(=O)(=O)c4cc(S(=O)(=O)c5ccccc5)cs4)CC3)C2)c1` (stereo partly drawn) [Compound 190, 3-((2S)-2-hydroxy-3-(8-(4-(phenylsulfonyl)thiophen-2-ylsulfonyl)-1-oxa-8-azaspiro[4.5]decan-3-ylamino)propoxy)-N-methylbenzenesulfonamide]: the IC50 turned out to be 18 nM.
For `CNS(=O)(=O)c1cccc(OC[C@@H](O)CNC2COC3(CCN(S(=O)(=O)c4ccc(-c5cc(C(F)(F)F)nn5C)s4)CC3)C2)c1` (stereo partly drawn) [Compound 191, 3-((2S)-2-hydroxy-3-(8-(5-(1-methyl-3-(trifluoromethyl)-1H-pyrazol-5-yl)thiophen-2-ylsulfonyl)-1-oxa-8-azaspiro[4.5]decan-3-ylamino)propoxy)-N-methylbenzenesulfonamide], the IC50 was found to be 80.9 nM.
Under `CNS(=O)(=O)c1cccc(OC[C@@H](O)CNC2COC3(CCN(S(=O)(=O)c4ccoc4)CC3)C2)c1` (stereo partly drawn) [Compound 192, 3-((2S)-3-(8-(furan-3-ylsulfonyl)-1-oxa-8-azaspiro[4.5]decan-3-ylamino)-2-hydroxypropoxy)-N-methylbenzenesulfonamide] stands 28.3 nM; under `CNS(=O)(=O)c1cccc(OC[C@@H](O)CNC2COC3(CCN(S(=O)(=O)c4ccn(C)n4)CC3)C2)c1` (stereo partly drawn) [Compound 193, 3-((2S)-2-hydroxy-3-(8-(1-methyl-1H-pyrazol-3-ylsulfonyl)-1-oxa-8-azaspiro[4.5]decan-3-ylamino)propoxy)-N-methylbenzenesulfonamide], 54.8 nM.
With `CNS(=O)(=O)c1cccc(OC[C@@H](O)CNC2COC3(CCN(S(=O)(=O)c4cn(C)cn4)CC3)C2)c1` (stereo partly drawn) [Compound 194, 3-((2S)-2-hydroxy-3-(8-(1-methyl-1H-imidazol-4-ylsulfonyl)-1-oxa-8-azaspiro[4.5]decan-3-ylamino)propoxy)-N-methylbenzenesulfonamide], the IC50 amounted to 97.6 nM.
Take `CNS(=O)(=O)c1cccc(OC[C@@H](O)CNC2COC3(CCN(S(=O)(=O)c4ccc(OC)c(F)c4)CC3)C2)c1` (stereo partly drawn) [Compound 195, 3-((2S)-3-(8-(3-fluoro-4-methoxyphenylsulfonyl)-1-oxa-8-azaspiro[4.5]decan-3-ylamino)-2-hydroxypropoxy)-N-methylbenzenesulfonamide]: the IC50 was determined as 23.4 nM.
Under `CNS(=O)(=O)c1cccc(OC[C@@H](O)CNC2COC3(CCN(S(=O)(=O)c4ccsc4)CC3)C2)c1` (stereo partly drawn) [Compound 196, 3-((2S)-2-hydroxy-3-(8-(thiophen-3-ylsulfonyl)-1-oxa-8-azaspiro[4.5]decan-3-ylamino)propoxy)-N-methylbenzenesulfonamide] stands 39.7 nM; under `CNS(=O)(=O)c1cccc(OC[C@@H](O)CNC2COC3(CCN(S(=O)(=O)c4c(Cl)ccc5nsnc45)CC3)C2)c1` (stereo partly drawn) [Compound 197, 3-((2S)-3-(8-(5-chlorobenzo[c][1,2,5]thiadiazol-4-ylsulfonyl)-1-oxa-8-azaspiro[4.5]decan-3-ylamino)-2-hydroxypropoxy)-N-methylbenzenesulfonamide], 12.8 nM; under `CNS(=O)(=O)c1cccc(OC[C@@H](O)CNC2COC3(CCN(S(=O)(=O)c4ccc(C)c(C#N)c4)CC3)C2)c1` (stereo partly drawn) [Compound 198, 3-((2S)-3-(8-(3-cyano-4-methylphenylsulfonyl)-1-oxa-8-azaspiro[4.5]decan-3-ylamino)-2-hydroxypropoxy)-N-methylbenzenesulfonamide], 8.65 nM.
Under `CNS(=O)(=O)c1cccc(OC[C@@H](O)CNC2COC3(CCN(S(=O)(=O)c4cccc(F)c4Cl)CC3)C2)c1` (stereo partly drawn) [Compound 199, 3-((2S)-3-(8-(2-chloro-3-fluorophenylsulfonyl)-1-oxa-8-azaspiro[4.5]decan-3-ylamino)-2-hydroxypropoxy)-N-methylbenzenesulfonamide] stands 15 nM; under `CNS(=O)(=O)c1cccc(OC[C@@H](O)CNC2COC3(CCN(S(=O)(=O)c4ccc(F)cc4Cl)CC3)C2)c1` (stereo partly drawn) [Compound 200, 3-((2S)-3-(8-(2-chloro-4-fluorophenylsulfonyl)-1-oxa-8-azaspiro[4.5]decan-3-ylamino)-2-hydroxypropoxy)-N-methylbenzenesulfonamide], 22.2 nM.
Take `CNS(=O)(=O)c1cccc(OC[C@@H](O)CNC2COC3(CCN(S(=O)(=O)c4cccc(F)c4F)CC3)C2)c1` (stereo partly drawn) [Compound 201, 3-((2S)-3-(8-(2,3-difluorophenylsulfonyl)-1-oxa-8-azaspiro[4.5]decan-3-ylamino)-2-hydroxypropoxy)-N-methylbenzenesulfonamide]: the half-maximal inhibitory concentration (IC50) was 17.1 nM.
With `CNS(=O)(=O)c1cccc(OC[C@@H](O)CNC2COC3(CCN(S(=O)(=O)c4cc(F)ccc4Cl)CC3)C2)c1` (stereo partly drawn) [Compound 202, 3-((2S)-3-(8-(2-chloro-5-fluorophenylsulfonyl)-1-oxa-8-azaspiro[4.5]decan-3-ylamino)-2-hydroxypropoxy)-N-methylbenzenesulfonamide] the figure was 10.8 nM; with `CNS(=O)(=O)c1cccc(OC[C@@H](O)CNC2COC3(CCN(S(=O)(=O)c4cc(S(C)(=O)=O)ccc4Cl)CC3)C2)c1` (stereo partly drawn) [Compound 203, 3-((2S)-3-(8-(2-chloro-5-(methylsulfonyl)phenylsulfonyl)-1-oxa-8-azaspiro[4.5]decan-3-ylamino)-2-hydroxypropoxy)-N-methylbenzenesulfonamide], 14.9 nM.
With `CNS(=O)(=O)c1cccc(OC[C@@H](O)CNC2COC3(CCN(S(=O)(=O)c4cc(F)ccc4C)CC3)C2)c1` (stereo partly drawn) [Compound 204, 3-((2S)-3-(8-(5-fluoro-2-methylphenylsulfonyl)-1-oxa-8-azaspiro[4.5]decan-3-ylamino)-2-hydroxypropoxy)-N-methylbenzenesulfonamide] the figure was 12.1 nM; with `CNS(=O)(=O)c1cccc(OC[C@@H](O)CNC2COC3(CCN(S(=O)(=O)c4cc(F)ccc4F)CC3)C2)c1` (stereo partly drawn) [Compound 205, 3-((2S)-3-(8-(2,5-difluorophenylsulfonyl)-1-oxa-8-azaspiro[4.5]decan-3-ylamino)-2-hydroxypropoxy)-N-methylbenzenesulfonamide], 14 nM.
Consider `CNS(=O)(=O)c1cccc(OC[C@@H](O)CNC2COC3(CCN(S(=O)(=O)c4ccc(Cl)c(OC)c4)CC3)C2)c1` (stereo partly drawn) [Compound 206, 3-((2S)-3-(8-(4-chloro-3-methoxyphenylsulfonyl)-1-oxa-8-azaspiro[4.5]decan-3-ylamino)-2-hydroxypropoxy)-N-methylbenzenesulfonamide], for which the IC50 was 9.62 nM.
